Patent US12122787B2, “Fused pyridone compound, and preparation method therefor and use thereof” (SHANGHAI JEMINCARE PHARMACEUTICALS CO., LTD, priority 2019, dated 2024)
Where two headings read alike, the source gives them in different places.

Key:
Format in all cases: cell-based
[1] = tested on: phosphorylated ERK (Thr202/Tyr204) in NCI-H358 cells expressing mutant RAS(G12C); experiment: Inhibition of RAS-mediated signal transduction: phosphorylated ERK ELISA in NCI-H358 cells; details: NCI-H358 cells, 2 hours of treatment, pERK normalized by Janus Green B, read-out: p-ERK IC50 (NCI H358)
Method: The cells were treated with or without the compound of the present disclosure (dimethyl sulfoxide, DMSO), and the final concentration of DMSO was guaranteed to be 0.5%. After 2 hours of treatment, the medium was removed and 4% paraformaldehyde (Beyotime catalog number E672002-0100) was added and left to stand for 20 minutes. Cells were washed with PBS after fixation and incubated with precooled methanol for 10 min to permeabilize the cell membrane.
The level of phosphorylated ERK was detected using an enzyme linked immunosorbent assay (ELISA) method. […] The plates were washed 5 times with PBS containing 0.05% Tween 20. […] The reaction was stopped by adding 1 mol/L H2SO4, and the OD value was read at 450 nm by EnVision (PerkinElmer).
The total number of cells per well was detected by Janus Green B staining method. After detecting the level of phosphorylated ERK, the 96-well plate was washed with PBS until colorless, and 0.1% Janus Green B (Abcam catalogue number ab111622) was added to incubate for 10 minutes. After the 96-well plate was washed with double distilled water, 0.1 mol/L HCl was added, then the mixture was shaked and incubated for 10 minutes. The OD value was read at 595 nm by EnVision (PerkinElmer).
The signal of pERK (Thr202/Tyr204) was normalized by the signal value of Janus Green B, and the inhibition percentage after drug treatment relative to DMSO reference was calculated. The percentage values were fitted by a four-parameter dose-response curve and generated IC50 values.

[2] = tested on: NCI-H358 cells expressing KRAS-G12C; experiment: Growth inhibition of tumor cell line expressing KRAS-G12C (Cell Titer Glo), NCI-H358
Method: (§1) The ability of the compounds of the present disclosure to inhibit the growth of cells expressing KRAS-G12C was evaluated by measuring the cell viability and calculating the GI50 values.
(§2) The tumor cell line NCI-H358 (ATCC catalogue number CRL-5807) expressing KRAS-G12C was cultured in RPMI medium supplemented with 10% fetal bovine serum and penicillin/streptomycin, and the tumor cell line MIA PaCa2 (ATCC CRL-1420) expressing KRAS-G12C was cultured in DMEM medium supplemented with 10% fetal bovine serum, 2.5% horse serum, and penicillin/streptomycin.
(§3) Cells NCI-H358 and MIA-Paca2 were inoculated into black transparent bottom 384-well plate (PerkinElmer catalogue number 6007460) with cell density of 1000 and 800 respectively, and the cells were allowed to adhere to the wall overnight (8-12 hours). After the cells adhered to the wall, the experimental group was added with the compound of the present disclosure diluted 5 times the concentration of the working solution (final concentration containing 0.1% dimethyl sulfoxide, i.e. DMSO); the control group was added with the same dilution as the experimental group (final concentration containing 0.1% DMSO). After 72 hours, Cell Titer Glo reagent (Promega catalogue number G7572) was used to detect ATP content according to the instruction method to determine the amount of cell proliferation. The brief operation steps were as follows: the cell plate was taken out and kept at normal temperature for equilibrium for 30 minutes; Cell Titer Glo reagent with the same volume as the culture was added; the culture plate was placed on a shaker for shaking and cracking for 2 minutes; the culture plate was left to stand at room temperature for 10 minutes; then the light signal value was read by microplate reader EnVision (PerkinElmer).
(§4) Data from all experimental groups were used to calculate the respective percent inhibition using the DMSO group, and the GI50 was calculated using the data processing software GraphPad to analyze the inhibition rates produced by the 9 compound dose concentrations diluted at ⅓-fold ratio.

[3] = tested on: MIA PaCa2 cells expressing KRAS-G12C; experiment: Growth inhibition of tumor cell line expressing KRAS-G12C (Cell Titer Glo), MIA PaCa2; details: MIA-Paca2, 72 hours
Method: as §1, §2, §3, §4

| Structure (SMILES) | GI50 ([2]; Homo sapiens, NCI-H358, 72 h) [nM] | GI50 ([3]; Homo sapiens, MIA PaCa-2, 72 h) [nM] | GI50 ([2]; NCI-H358, 72 hours) [nM] | GI50 [3] [nM] | IC50 ([1]; Homo sapiens, NCI-H358, 2 h) [nM] | IC50 [1] [nM] |
| --- | --- | --- | --- | --- | --- | --- |
| C=CC(=O)N1C[C@@H]2COc3c(c4cc(F)c(-c5c(O)cccc5F)c(F)c4n(-c4c(C(C)C)ncnc4C(C)C)c3=O)N2C[C@H]1C [Compound 19A] | 8 | 14 | – | – | 8 | – |
| C=CC(=O)N1C[C@@H]2COc3c(c4cc(Cl)c(-c5c(O)cccc5F)c(F)c4n(-c4c(C)ccnc4C(C)C)c3=O)N2C[C@H]1C [Compound 18A-1] | – | – | 2 | 10 | – | 4 |
| C=CC(=O)N1C[C@@H]2COc3c(c4cc(F)c(-c5c(O)cccc5F)c(F)c4n(-c4c(C)ccnc4C(C)C)c3=O)N2C[C@H]1C [Compound 3B] | – | – | 8 | 39 | – | 8 |
| C=CC(=O)N1C[C@@H]2COc3c(c4cc(Cl)c(-c5c(O)cccc5F)c(F)c4n(-c4c(C)ccnc4C(C)C)c3=O)N2C[C@H]1C [Compound 18B-1] | – | – | 21 | 66 | – | 36 |
| C=CC(=O)N1CC2C(=O)N(CCN(C)C)c3c(c4cc(F)c(-c5c(O)cccc5F)c(F)c4n(-c4c(C)ccnc4C(C)C)c3=O)N2CC1C (stereo not drawn) [Compound 24D] | – | – | 232 | 407 | – | 246 |
| C=CC(=O)N1C[C@@H]2CN(C)c3c(c4cc(F)c(-c5c(O)cccc5F)c(F)c4n(-c4c(C)ccnc4C(C)C)c3=O)N2C[C@H]1C (atropisomer, axis not shown) [Compound 16A-1] | 12 | 55 | – | – | – | 11 |
| C=CC(=O)N1C[C@@H]2C(=O)N(CCN(C)C)c3c(c4cc(Cl)c(-c5c(O)cccc5F)c(F)c4n(-c4c(C)ccnc4C(C)C)c3=O)N2C[C@H]1C (single isomer, unassigned) [Compound 26C] | – | – | 2 | 1 | – | 2 |
| C=CC(=O)N1C[C@@H]2C(=O)N(C)c3c(c4cc(F)c(-c5c(O)cccc5F)nc4n(-c4ccccc4C(C)C)c3=O)N2C[C@H]1C (atropisomer, axis not shown) [Compound 7B] | 148 | 328 | – | – | 98 | – |
| C=CC(=O)N1C[C@@H]2C(=O)N(C)c3c(c4cc(Cl)c(-c5c(O)cccc5F)c(F)c4n(-c4c(C)ccnc4C(C)C)c3=O)N2C[C@H]1C [Compound 23A-2] | – | – | 3 | 14 | – | 3 |

More lines, main results first:

| GI50 ([2]; Homo sapiens, NCI-H358, 72 h) [nM] | GI50 ([3]; Homo sapiens, MIA PaCa-2, 72 h) [nM] | GI50 ([2]; NCI-H358, 72 hours) [nM] | GI50 [3] [nM] | Structure (SMILES) | IC50 ([1]; Homo sapiens, NCI-H358, 2 h) [nM] | IC50 [1] [nM] |
| --- | --- | --- | --- | --- | --- | --- |
| 7 | 6 | – | – | C=CC(=O)N1C[C@@H]2C(=O)N(CCN(C)C)c3c(c4cc(Cl)c(-c5c(O)cccc5F)c(F)c4n(-c4c(CC)ccnc4C(C)C)c3=O)N2C[C@H]1C (atropisomer, axis not shown) [Compound 54B-1] | – | 12 |
| – | – | 223 | 448 | C=CC(=O)N1C[C@@H]2C(=O)N(C)c3c(c4cc(Cl)c(-c5ccc(F)c6nc(N)sc56)nc4n(-c4c(C)ccnc4C(C)C)c3=O)N2C[C@H]1C (single isomer, unassigned) [Compound 56A] | – | 183 |
| 32 | 235 | – | – | C=CC(=O)N1C[C@@H]2CN(CCO)c3c(c4cc(F)c(-c5c(O)cccc5F)c(F)c4n(-c4c(C)ccnc4C(C)C)c3=O)N2C[C@H]1C [Compound 36A-1] | 16 | – |
| 7 | 9 | – | – | C=CC(=O)N1C[C@@H]2C(=O)N(C)c3c(c4cc(F)c(-c5c(C)ccc6[nH]nc(N)c56)c(F)c4n(-c4c(C)ccnc4C(C)C)c3=O)N2C[C@H]1C [Compound 28A] | 6 | – |
| 66 | 392 | – | – | C=CC(=O)N1C[C@@H]2CN(CCC(C)O)c3c(c4cc(F)c(-c5c(O)cccc5F)c(F)c4n(-c4c(C)ccnc4C(C)C)c3=O)N2C[C@H]1C (stereo partly drawn) [Compound 37A] | 70 | – |
